# Columns and labels:
# rectum cancer PDX models = assay: Protein expression in rectum cancer PDX models under chemotherapeutic treatment; assay type: in vivo, mice; conditions: not statistically significant
# Procedure: (§1) Protein expression was analyzed in NP-40 tissue lysates. Therefore normalized protein amounts were loaded onto 8% or 12.5% polyacrylamide gels in consideration of the molecular mass of the protein of interest. Electrophoresis was performed for 1.5 h at 120 V in SDS Running Buffer with the Mini-vertical electrophoresis unit (Amersham Biosciences). Then separated proteins were transferred to PVDF-membranes (Immobilin-P Transfer Membran; Millipore) using a Semi Dry Blotting Unit (JH BioInnovations) at 160 mA for 1.5 hours. Membranes were blocked with 5% non-fat dried milk (AppliChem) in Tris-buffered saline-Tween (TBS-T; 0.2 M Tris, 1.4 M NaCl, pH 7.4, 0.1% Tween) for 1 h, followed by a primary antibody incubation (overnight at 4° C.) and an 1 h secondary antibody incubation (1:3000 dilution, GE Healthcare). All primary antibodies were diluted in 5% bovine serum albumin diluted in TBS-T. Between incubation steps membranes were washed 3 times in TBS-T for 10 min. Membranes were then developed with an enhanced chemiluminescence (ECL) Western blotting system (GE healthcare) using the ChemiImager™ System (Alpha Innotech). Immunoblots were evaluated semi-quantitative using ImageJ (Schneider C A, et al. Nat Meth. 9(2012):671-5) software for densitometric analyses. Relative densities were then calculated by normalizing density values for each protein to the loading control (Actin).
# (§2) Samples of patients suffering from colon cancer or GBMs were transplanted into 3 to 6 immunodeficient NOD/SCID mice. The tumor growth was monitored in a daily rhythm. At a size of about 1 cm^3, the tumors were removed and transferred to naive NMRI:nu/nu mice for chemosensitivity testing. Xenotransplanted carcinomas and metastases were treated with different standard and novel chemotherapeutic drugs. During chemosensitivity testing the tumor volume was measured regularly and used to generate growth curves. After a time period of 30-40 days the tumors were excised and analyzed by Immunoblot and Real-Time-PCR. Chemosensitivity data were kindly provided by EPO Berlin-Buch GmbH. Tumor volume of treatment in comparison to control (T/C) was calculated in percent.
# To analyze protein expression of different eIF subunits under chemotherapeutic treatment, 4 rectum primary carcinoma (RPC) PDX models and 2 rectum metastasis (RM) PDX model were generated.
# tumor cells = conditions: eIF5A2 siRNA combined with GC7, HCC; cited from earlier work
# eIF protein expression = eIF protein expression after chemosensitivity testings in murine GBM xenograft models (immunoblot); assay type: in vivo, mice; conditions: murine GBM xenografts; for eIF protein expression (eIF subunits overall): compared to PBS treated controls
# Procedure: as §1, §2
# Additionally to single treatments with each compound, combination therapies for Temozolomide/Everolimus, Temozolomide/Regorafenib and Temozolomide/Thalidomide were investigated.
# colon cancer PDX models = assay: Protein expression in colon cancer patients derived xenograft (PDX) models under chemotherapeutic treatment; assay type: in vivo, mice; conditions: not statistically significant
# Procedure: Protein expression was analyzed in NP-40 tissue lysates. Therefore normalized protein amounts were loaded onto 8% or 12.5% polyacrylamide gels in consideration of the molecular mass of the protein of interest. Electrophoresis was performed for 1.5 h at 120 V in SDS Running Buffer with the Mini-vertical electrophoresis unit (Amersham Biosciences). Then separated proteins were transferred to PVDF-membranes (Immobilin-P Transfer Membran; Millipore) using a Semi Dry Blotting Unit (JH BioInnovations) at 160 mA for 1.5 hours. […] Immunoblots were evaluated semi-quantitative using ImageJ (Schneider C A, et al. Nat Meth. 9(2012):671-5) software for densitometric analyses. Relative densities were then calculated by normalizing density values for each protein to the loading control (Actin).
# Samples of patients suffering from colon cancer or GBMs were transplanted into 3 to 6 immunodeficient NOD/SCID mice. The tumor growth was monitored in a daily rhythm. […] During chemosensitivity testing the tumor volume was measured regularly and used to generate growth curves. After a time period of 30-40 days the tumors were excised and analyzed by Immunoblot and Real-Time-PCR. […] Tumor volume of treatment in comparison to control (T/C) was calculated in percent.
# hepatoma cell = conditions: in vivo and in vitro; cited from earlier work
# [1] = rectum metastasis (RM) PDX models
Compound,eIF3A protein expression (rectum cancer PDX models; [1]),eIF protein expression (eIF subunits overall) (eIF protein expression),eIF3C protein expression (eIF protein expression; vs PBS control),other results
COC(=O)c1ccc2c(c1)NC(=O)/C2=C(\Nc1ccc(N(C)C(=O)CN2CCN(C)CC2)cc1)c1ccccc1 [Nintedanib],trend in downregulation,–,–,eIF3J protein expression (rectum cancer PDX models; [1]): tendency to be downregulated
NCCCCCCCN=C(N)N [GC7],–,–,–,migration ability of tumor cells (tumor cells): effectively reduces
O=C1CCC(N2C(=O)c3ccccc3C2=O)C(=O)N1 (stereo not shown) [Thalidomide],–,almost no difference,upregulated,–
O=C1[O][Pt]2([NH][C@@H]3CCCC[C@H]3[NH]2)[O]C1=O [Oxaliplatin],–,–,–,"mTOR protein expression (colon cancer PDX models; colon primary carcinoma (CPC) PDX models, vs untreated control): trend to be upregulated; eIF4G protein expression (rectum cancer PDX models; rectum primary carcinoma (RPC) PDX): increased"
O=c1[nH]cc(F)c(=O)[nH]1 [5-FU],trend in downregulation,–,–,–
CO[C@H]1C[C@@H]2CC[C@@H](C)[C@@](O)(O2)C(=O)C(=O)N2CCCC[C@H]2C(=O)O[C@H]([C@H](C)C[C@@H]2CC[C@@H](OCCO)[C@H](OC)C2)CC(=O)[C@H](C)/C=C(\C)[C@@H](O)[C@@H](OC)C(=O)[C@H](C)C[C@H](C)/C=C/C=C/C=C/1C [Everolimus],–,almost no difference,upregulated,–
Bevacizumab: Anti-VEGF monoclonal antibody (angiogenesis inhibitor),trend in downregulation,–,–,eIF3K protein expression (eIF protein expression; vs PBS control): down-regulation; PTEN protein expression (colon cancer PDX models; CM PDX model): seemed to be decreased
CCc1c2c(nc3ccc(OC(=O)N4CCC(N5CCCCC5)CC4)cc13)-c1cc3c(c(=O)n1C2)COC(=O)[C@]3(O)CC [Irinotecan],trend in downregulation,differential effects,–,–
CNC(=O)c1cc(Oc2ccc(NC(=O)Nc3ccc(Cl)c(C(F)(F)F)c3)c(F)c2)ccn1 [Regorafenib],trend in downregulation,totally down-regulated,–,–
CC[C@@H](C(=O)[C@@H](C)[C@@H](O)[C@H](C)[C@@H]1O[C@@H]([C@@H](CC)C(=O)O)CC[C@@H]1C)[C@H]1O[C@]2(C=C[C@@H](O)[C@]3(CC[C@@](C)([C@H]4CC[C@](O)(CC)[C@H](C)O4)O3)O2)[C@H](C)C[C@@H]1C [Salinomycin],–,almost no difference,upregulated,–
CNC(=O)c1cc(Oc2ccc(NC(=O)Nc3ccc(Cl)c(C(F)(F)F)c3)cc2)ccn1 [Sorafenib],–,almost no difference,upregulated,Mcl-1 protein (hepatoma cell): reduce; RAF/MEK/ERK signaling transduction pathway (hepatoma cell): inhibit; eIF4E phosphorylation level (hepatoma cell): reduce; hepatoma cell apoptosis (hepatoma cell): induce
